Data: US12351634B2, “Use of cilengitide for ameliorating cardiac fibrosis occurring in response to myocardial infarction” (priority 2018, dated 2025)

Experiments:
[1] = tested on: cardiac PW1+ cells in PW1nLacZ-reporter mouse post-MI hearts; test: Short-term lineage tracing of cardiac PW1+ cells in post-MI heart sections; format: in vivo; details: cardiac sections of post-MI (7 days) hearts, vs vehicle
Protocol: Male 8 weeks-old C57BL/6 or PW1-reporter (PW1^nLacZ) mice were anesthetized in an induction chamber with 2% isoflurane mixed with 1.0 L/min 100% 02 and placed on a supine position on a heating pad to maintain body temperature. The mice were intubated with endotracheal tube and then connected to a rodent ventilator (180 breaths/min and a tidal volume of 200 μl). During surgical procedure anesthesia is maintained at 1.5-2% isoflurane with O2. The chest was accessed from the left side through the intercostal space and the pericardium incised. The left anterior descending coronary artery (LAD) was exposed and encircled with a 8.0 prolene suture at the apex of the left ventricle. The suture was briefly snared to confirm the ligation by blanching the arterial region. Mice were analyzed 7 days after LAD permanent ligation.
Male C57BL/6J mice (Janvier labs) or PW1-reporter (PW1^nLacZ) mice received Cilengitide at 10 mg/kg/day (Adooq bioscience, ref: A12372) or vehicle i.p. for 14 days. LAD surgery was performed 7 days after starting cilengitide or vehicle administration. Mice were divided in 4 groups: MI-CIL (Cilengitide), MI-Veh (vehicle), Ctrl-CIL and Ctrl-Veh. […]

[2] = tested on: FACS-isolated cardiac PW1+ cells; test: Pharmacological inhibition of PW1+ cells in vitro, Q-PCR on fibrosis markers; format: cell-based, mouse; details: cilengitide 300 nM, 1000 nM vs vehicle, treated for 48 h
Protocol: Animals were injected with heparin (100 UI/25 g) before euthanasia. The right atrium was carefully nicked with surgical scissors and the heart was perfused with 10 mL of PBS (Gibco) through the right ventricle to remove the blood. After collecting the heart, the atria were trimmed away and the ventricles were finely sliced (0.5-1 mm^3). Cardiac cells were dissociated at 37° C. for 30 min by enzymatic digestion with 480 U/mL collagenase II (Worthington) in DPBS (GIBCO). The digestion was stopped with DMEM (Life Technologies) supplemented into 10% FBS (Sigma) and 1% penicillin/streptomycin (P/S; Life Technologies) and the cell suspension was filtered through 100 μm Falcon cell strainer before centrifugation at 416 g for 10 min at 4° C. The cell pellet was re-suspended in 500 μL of Red Blood Cell Lysing (RBCL) Buffer to lyse red blood cells at RT for 30 sec. DPBS was added before 10 min centrifugation in same conditions as above. The cell pellet was then re-suspended in 300 μL of HBSS (Gibco) containing 1% FBS (HBSS-1% FBS) to perform immunostaining for 45 min on ice in dark. The list of antibodies used is reported in supplemental table 1. After incubation, HBSS-1% FBS was added and cells centrifuged at 416 g for 10 min at 4° C. to perform PW1+ cells staining. For this, 300 μL of HBSS-1% FBS containing 60 μM of 5-Dodecanoylaminofluorescein Di-β-D-Galactopyranoside (C12FDG, ThermoFisher Scientific) a substrate for β-gal detection by flow cytometry was added on cells then incubated in dark at 37° C. for 1 h under constant agitation. Reaction was stopped by the addition of HBSS-1% FBS. After cell centrifugation, the pellet was re-suspended in 200 μL of HBSS-1% FBS, the viability dye propidium iodide (Sigma) was added and the samples were filtered through a 50 μm Filcon (BD bioscience) just before the analysis.
FACS sorted PW1^+ or PW1^− cells were plated at the density of 25 000 cell per cm^2 in culture plates coated with attachment factor (ThermoFisher Scientific). Cells were left to adhere overnight with 0.5 mL of growth medium (DMEM 10% FBS 1% P/S). The culture medium was changed the day after. At day 5, culture media was changed and supplemented with 0, 300 nM, or 1 μM of cilengitide. At day 6, medium was removed, and cells were washed twice with PBS. Cells were then lysed and RNA extracted followed by an RT-PCR. A Q-PCR was finally performed on selected fibrosis markers.
To test this hypothesis, we first investigated whether CD51 pharmacological inhibition affects the expression of profibrotic genes in freshly FACS-isolated cardiac PW1^+ cells. These cells were seeded and cultured for 4 days and then treated for 48 h with growing concentrations of cilengitide or vehicle. […]

[3] = tested on: mice subjected to MI via a complete LAD ligation; test: Myocardial infarction by LAD ligation, cilengitide vs vehicle; format: in vivo, mouse
Protocol: Male C57BL/6J mice (Janvier labs) or PW1-reporter (PW1^nLacZ) mice received Cilengitide at 10 mg/kg/day (Adooq bioscience, ref: A12372) or vehicle i.p. for 14 days. LAD surgery was performed 7 days after starting cilengitide or vehicle administration. Mice were divided in 4 groups: MI-CIL (Cilengitide), MI-Veh (vehicle), Ctrl-CIL and Ctrl-Veh. At Day 14, animals were euthanatized and hearts were carefully collected, incubated for 2 h at 4° C. in 4% Formaldehyde solution (Ted Pella) then 24 h in 30% sucrose/PBS solution before OCT embedding and frozen in liquid nitrogen vapours. Echocardiographic measurements were taken at days 0 and 7 to assess cardiac function.
When comparing more than 2 groups, quantitative data were analyzed using one-way ANOVA and pair wise comparisons with Tukey's test for multiple comparisons. The Mann Whitney U test was used for comparing continuous variables between 2 groups. A log rank (Mantel-Cox) test was used to compare survival between groups. P-values <0.05 were considered significant.
Mice were pre-treated for 7 days with cilengitide or vehicle and were then subjected to MI via a complete LAD ligation. The mice were further daily treated with cilengitide or vehicle for additional 7 days before final evaluation of cardiac function and remodeling (FIG. 1a).

[4] = tested on: integrin αV, including αVβ1, αVβ3 and αVβ5; details: cited from earlier work
[5] = sham animals (no MI), cilengitide 10 mg/kg/day i.p., data not shown

**Q.** Which results are given for `CC(C)[C@H]1C(=O)N[C@@H](CCCN=C(N)N)C(=O)NCC(=O)N[C@@H](CC(=O)O)C(=O)N[C@H](Cc2ccccc2)C(=O)N1C` [cilengitide, 2-[(2S,5R,8S,11S)-5-benzyl-11-{3-[(diaminomethylidene)amino]propyl}-7-methyl-3,6,9,12,15-pentaoxo-8-(propan-2-yl)-1,4,7,10,13-pentaazacyclopentadecan-2-yl]acetic acid]?
**A.** number of β-gal+ cells that did not express vimentin ([1]; p<0.001): significant increase; proportion of cells co-expressing β-gal and vimentin ([1]; p<0.05): significant reduction; Colla1 expression [2]: not affected; aSma (or Acta2) expression [2]: significant down-regulation; mmp2 expression [2]: significant down-regulation; tgfrb1 expression [2]: significant down-regulation; survival ([3]; 7 days after MI, cilengitide 10 mg/kg/day i.p. for 14 days, started 7 days before LAD ligation, vs vehicle, p<0.05 log-rank): significant improvement; cardiac function as measured by left ventricular ejection fraction ([3]; 7 days after MI, cilengitide 10 mg/kg/day i.p., vs vehicle): significant increase; infarct size ([3]; 7 days after MI, masson trichrome, digital image quantification, 10 mg/kg/day i.p., vehicle 56.8±14.9%, p=0.0008): 38.8±7.9%; interstitial fibrosis measured in the remote myocardial area ([3]; 7 days after MI, picrosirius red, 10 mg/kg/day i.p., vehicle 36.8±13.1%, p<0.0001): 15.9±10.4%; cardiac rupture (adverse outcome) ([3]; post-MI mice under cilengitide treatment): did not observe; cardiac fibrosis in sham animals [3, 5]: not associated with any changes; cardiac function in sham animals [3, 5]: not associated with any changes; survival in sham animals [3, 5]: not associated with any changes; inhibiting activity against the integrin αV [4]: strong inhibiting activity
